# Source: the supplement of paper PMC11003180
# Experiments:
# Assay in all cases: drug sensitivity score (DSS) from 5-dose viability curve (DSS (area-based score, 0 = no response)); higher = more sensitive (stronger viability inhibition); extreme values may be limits of the assay
# [1] = system: MDCK wild-type - doxycycline; conditions: doxycycline: none; 72 h
# In short: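 For 72 h at 37 °C, parental MDCK cells (no doxycycline, 2000 cells/well) were incubated on 384-well plates pre-spotted with 528 oncology drugs at five doses from 1 to 10,000 nM. CellTiter-Glo luminescence served as the viability readout, scaled per plate between vehicle and positive controls. The Breeze pipeline then fitted dose-response curves to yield drug sensitivity scores.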
# [2] = system: MDCK p60AmotL2-inducible + doxycycline (p60AmotL2 expressing); conditions: doxycycline: 10 ng/mL; 72 h
# In short: (§1)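 Pre-spotted 384-well plates held 528 oncology drugs, each at five doses from 1 to 10,000 nM. Parental and doxycycline-inducible MDCK cells, exposed beforehand to 10 ng/mL doxycycline in the medium, were added at 2000 cells/well and incubated 72 h at 37 °C. Viability came from CellTiter-Glo luminescence normalized per plate to vehicle and positive controls, and the Breeze pipeline fitted dose-response curves to give drug sensitivity scores.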
# [3] = system: MDCK wild-type + doxycycline; conditions: doxycycline: 10 ng/mL; 72 h
# In short: as §1
Structure (SMILES),drug sensitivity score [1],drug sensitivity score [2],drug sensitivity score [3]
Cn1nnc2c(C(N)=O)ncn2c1=O [Temozolomide],0,0,0
COc1cc(OC)c(/C=C/S(=O)(=O)Cc2ccc(OC)c(NCC(=O)O)c2)c(OC)c1 [Rigosertib],24,26.8,26.5
Cc1cccc(-c2nn3c(c2-c2ccnc4ccc(C(N)=O)cc24)CCC3)n1 [Galunisertib],0,0,0
CCCN(CCC)C(=O)C1=Cc2ccc(-c3ccc(C(=O)N4CCCC4)cc3)cc2N=C(N)C1 [Motolimod],0,2.5,0.8
O=C(NCc1ccncc1)C12CC3CC(C1)CC(c1ccc(Cl)cc1)(C3)C2,2.4,6.4,4.3
CNC(=O)c1ccc(N2C(=S)N(c3cnc(C#N)c(C(F)(F)F)c3)C(=O)C23CCC3)cc1F [Apalutamide],0,0,0
C[C@H]1O[C@@H](O[C@H]2[C@@H](O)C[C@H](O[C@H]3[C@@H](O)C[C@H](O[C@H]4CC[C@@]5(C)[C@H](CC[C@@H]6[C@@H]5C[C@@H](O)[C@]5(C)[C@@H](C7=CC(=O)OC7)CC[C@]65O)C4)O[C@@H]3C)O[C@@H]2C)C[C@H](O)[C@@H]1O [Digoxin],6,5.3,11.2
CN(C)C(=N)NC(=N)N [Metformin],0,0,0
CNC(=O)c1ccccc1Nc1cc(Nc2ccc(N3CCOCC3)cc2OC)ncc1C(F)(F)F [VS-4718],3.6,5.6,4.7
CCN(CC)CCNC(=O)c1c(C)[nH]c(/C=C2\C(=O)Nc3ccc(F)cc32)c1C [Sunitinib],0,1.2,0
Cc1c(F)cc(C(=O)NC2CC2)cc1-c1ccc(C(=O)NCC(C)(C)C)cn1 [Losmapimod],0,0,0
COc1ccc(Cn2ccc3ccc(C(=O)NO)cc32)cc1,0,2.1,3.1
C[C@@H](Oc1cc(-c2cnn(C3CCNCC3)c2)cnc1N)c1c(Cl)ccc(F)c1Cl [Crizotinib],0,0,0
CCNC(=O)c1noc(-c2cc(C(C)C)c(O)cc2O)c1-c1ccc(CN2CCOCC2)cc1 [Luminespib],15.8,20.7,18.4
C[C@@H](Oc1cc(-n2cnc3ccc(CN4CCN(C)CC4)cc32)sc1C(N)=O)c1ccccc1C(F)(F)F,29.5,32.1,35.1
O=C(Nc1nc2cccc(-c3ccc(CN4CCS(=O)(=O)CC4)cc3)n2n1)C1CC1 [Filgotinib],0,0,0
CCNc1nc(Nc2cc(F)c(C(=O)N3CCOCC3)cc2OC)ncc1C(F)(F)F [GNE-7915],0,0,0
Cc1cc(Nc2cc(N3CCN(C)CC3)nc(/C=C/c3ccccc3)n2)n[nH]1 [ENMD-2076],6.5,10.7,8.5
C=CC(=O)Nc1cccc(Nc2nc(Nc3ccc(N4CCN(C(C)=O)CC4)cc3OC)ncc2C(F)(F)F)c1 [Rociletinib],6.9,10.4,6.7
O=C(CCCCCCNC(=O)c1cnc(N(c2ccccc2)c2ccccc2)nc1)NO [Rocilinostat],4.5,7.2,4.9
O=C(c1cccc(Cl)c1F)N1CCN(Cc2cccc(Nc3nccs3)n2)CC1 [MK-8745],6.6,12.4,9.5
Cc1c(-c2ccc(N3CCc4cccc(C(=O)Nc5nc6ccccc6s5)c4C3)nc2C(=O)O)cnn1CC12CC3CC(CC(C3)C1)C2,0,0,0
CC(C)n1nc(-c2ccc3oc(N)nc3c2)c2c(N)ncnc21 [Sapanisertib],8.1,13.4,9.8

Structure (SMILES),drug sensitivity score [1],drug sensitivity score [2],drug sensitivity score [3]
NS(=O)(=O)NCCNc1nonc1/C(=N/O)Nc1ccc(F)c(Br)c1 [Epacadostat],0,0,0
C[C@@H]1C=C2C(=O)O[C@@H]3CC[C@H](C1)[C@]23O [Galiellalactone],4.3,2.5,2
CC/C(=C(\c1ccc(O)cc1)c1ccc(OCCN(C)C)cc1)c1ccccc1 [4-hydroxytamoxifen],1.2,5.7,4.3
COc1cc2ncnc(Nc3ccc(F)c(Cl)c3)c2cc1OCCCN1CCOCC1 [Gefitinib],3.2,17.9,1.5
N#Cc1ccc(COC[C@H]2O[C@@H](n3c(NCc4ccc(Cl)c(Cl)c4)nc4c(N)ncnc43)[C@H](O)[C@@H]2O)cc1,0,0,0
CNC(=O)c1nn(C)c2c1C(C)(C)Cc1cnc(Nc3ccc(N4CCN(C)CC4)cc3)nc1-2 [Milciclib],12.4,13.2,14.5
CC[C@@H]1CN(C(=O)NCC(F)(F)F)C[C@@H]1c1cnc2cnc3[nH]ccc3n12 [Upadacitinib],0,0,0
Cc1ccc(C(=O)Nc2ccc(Oc3cc4cnn(C)c4cc3-c3cn[nH]c3)c(F)c2)c(=O)n1-c1ccc(F)cc1 [Merestinib],0.9,0,0
O=C(c1ccc(OCCN2CCCCC2)cc1)c1c(-c2ccc(O)cc2)sc2cc(O)ccc12 [Raloxifene],5.2,6.1,5.2
CN1CCC(CNc2ccc3ncc(-c4cccc(OC(F)(F)F)c4)n3n2)CC1 [SGI-1776],6.6,7.5,6.3
Cc1c(Cn2c(C)nc3c(C(=O)O)cc(N4CCOCC4)cc32)cccc1C(F)(F)F,0,0,0
COc1cc(C)c(/C=C/C(C)=C/C=C/C(C)=C/C(=O)O)c(C)c1C [Acitretin],3.6,0,0
CC1(C)C(C(=O)Nc2ccc(S(=O)(=O)c3ccc(NC(=O)C4C(C)(C)C4(C)C)cc3)cc2)C1(C)C [BRD7116],0,0,0
C1=N/C2=N/c3ccc(OCCN4CCCC4)c(c3)COC/C=C/COCc3cccc(c3)C(=C1)N2 [Pacritinib],10.1,10,9.3
CS(=O)(=O)CCNCc1ccc(-c2ccc3ncnc(Nc4ccc(OCc5cccc(F)c5)c(Cl)c4)c3c2)o1 [Lapatinib],0.9,6.8,0
O=C(CCCCCCC(=O)Nc1ccc([C@H]2O[C@@H](CSc3nc(-c4ccccc4)c(-c4ccccc4)o3)C[C@@H](c3ccc(CO)cc3)O2)cc1)NO [Tubacin],0,0,0
CC(C)(C)Cn1c(N)nc2ccc(-c3[nH]c(C(C)(C)C)nc3-c3ccc(F)cc3)nc21 [Ralimetinib],0,4.4,3.5
CN1C(=O)N[C@H](Cc2c[nH]c3c(Cl)cccc23)C1=O [Necrostatin 2],0,0,0
COCCNCc1ccc(-c2cc3nccc(Oc4ccc(NC(=S)NC(=O)Cc5ccc(F)cc5)cc4F)c3s2)nc1 [Glesatinib],0,0.4,0
CNS(=O)(=O)Nc1nccc(Cc2c(C)c3ccc(Oc4ncccn4)cc3oc2=O)c1F,0,2.3,0.5
O=C(NOCCO)c1ccc2cncn2c1Nc1ccc(I)cc1F [GDC-0623],1.4,0.3,0
C[C@@H]1C[C@H]2[C@@H]3CCC4=CC(=O)C=C[C@]4(C)[C@@]3(F)[C@@H](O)C[C@]2(C)[C@@]1(O)C(=O)CO [Dexamethasone],0,0,0
O[C@H]1CC[C@H](Nc2ncc3nc(Nc4c(F)cc(F)cc4F)n([C@H]4CCOC4)c3n2)CC1 [Tanzisertib],0,0.9,0.1
